Read-outs that look alike come from different tables or passages of the source.
Conditions: aqueous solution
Method: In addition, an equilibrium constant of inclusion complex between epinephrine and sulfobutyl ether β-cyclodextrin (SBE-CD) in aqueous solution was determined using a spectroscopy technique, i.e., UV spectrophotometer as shown in FIG. 1. The equilibrium constant (K) between epinephrine and SBE-CD was determined by increasing the molar concentration ratio of SBD-CD to epinephrine in solution and measuring the spectral shift (ΔA) as shown FIG. 2 at pH 3.5. The K value was derived from the slope and intercept of a linear relationship from a plot between [Epi][SBD-CD]/ΔA and [SBD-CD] according to the Hildebrand and Benesi equation as shown in FIG. 2 (Rong Liu, Editor, Water-Insoluble Drug Formulation, Interpharm Press, 2000; and F. Cramer et. al., The Formation of Inclusion Compounds of a-Cyclodextrin in Aqueous Solutions, J. Am. Chem. Soc., 89, 14-20, 1967, the disclosures of which are incorporated herein by reference in their entireties).

- equilibrium constant (K) between epinephrine and SBE-CD (pH 3.5, room temperature): 488 M⁻¹
- equilibrium constant (K) between epinephrine and SBE-CD (pH 5.5): 111 M⁻¹
SMILES: CNCC(O)c1ccc(O)c(O)c1 (single isomer, unassigned; (-)) [epinephrine, (−)-3,4-Dihydroxy-α-[(methylamino)methyl]benzyl alcohol]

— patent publication US20190240337A1, “EPINEPHRINE FORMULATIONS FOR MEDICINAL PRODUCTS” (priority 2013, published 2019)
